“Also recorded” adds a separate entry of the source. Like-named read-outs stand apart in the source and are kept apart here. Square brackets hold non-standard residues; d marks the D form. Peptide text beside a SMILES is read from it. Sar = CNCC(=O)O
Experiments:
[1] = molecular target: T1, PepT1 (Mus musculus, UniProt Q9JIP7); assay: Co-perfusion of cefadroxil with dimethyl-amiloride; conditions: 0.1 mM DMA co-perfused with 10 μM cefadroxil, pH 6.5, wild-type mice
T1 sequence (Q9JIP7 1-709): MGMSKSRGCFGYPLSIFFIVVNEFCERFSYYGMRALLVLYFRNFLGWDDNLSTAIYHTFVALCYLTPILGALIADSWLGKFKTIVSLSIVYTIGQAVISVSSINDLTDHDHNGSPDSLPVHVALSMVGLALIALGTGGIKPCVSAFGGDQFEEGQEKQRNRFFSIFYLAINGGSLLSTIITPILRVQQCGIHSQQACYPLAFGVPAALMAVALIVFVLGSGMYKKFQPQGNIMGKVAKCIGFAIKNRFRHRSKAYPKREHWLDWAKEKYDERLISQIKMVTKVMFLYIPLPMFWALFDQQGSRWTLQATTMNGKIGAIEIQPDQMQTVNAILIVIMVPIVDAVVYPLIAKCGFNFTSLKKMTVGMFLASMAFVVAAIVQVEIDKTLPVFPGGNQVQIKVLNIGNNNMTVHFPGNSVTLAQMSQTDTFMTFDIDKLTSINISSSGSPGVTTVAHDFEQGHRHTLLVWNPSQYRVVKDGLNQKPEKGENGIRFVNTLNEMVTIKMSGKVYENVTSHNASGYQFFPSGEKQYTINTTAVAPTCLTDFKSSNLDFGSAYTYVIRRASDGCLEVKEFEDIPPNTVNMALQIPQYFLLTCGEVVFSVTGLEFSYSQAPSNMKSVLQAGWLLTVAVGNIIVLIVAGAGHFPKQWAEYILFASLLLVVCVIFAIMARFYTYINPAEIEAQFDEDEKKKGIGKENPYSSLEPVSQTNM

[2] = molecular target: T1, PepT1; conditions: 25 mM inhibitor co-perfused with 10 μM cefadroxil, pH 6.5, wild-type mice
[3] = system: PepT1; conditions: cited from earlier work
[4] = after oral dipeptide administration; cited from earlier work
[5] = molecular target: T1, PepT1; conditions: jejunum, wild-type mice, pH 6.5
[6] = system: PepT1; format: in vivo, mice; conditions: for Peff: 10 μM cefadroxil, pH 6.5
[7] = molecular target: T1, PepT1; format: in vivo, mice; conditions: wild-type mice, 10 μM cefadroxil, pH 6.5
[8] = mouse, in vivo, po
[9] = in situ perfusions in proximal small intestine, cited from earlier work
[10] = system: PepT1; conditions: PepT1 cRNA-injected Xenopus oocytes; cited from earlier work
[11] = molecular target: T1, PepT1; assay: pH-dependent jejunal permeability of cefadroxil, in situ perfusion; format: in vivo; conditions: 10 μM cefadroxil, jejunum, wild-type mice, pH 5.5 to 7.5
[12] = system: Caco-2 cells; conditions: cited from earlier work
[13] = cited from earlier work
[14] = cited from earlier work; remark: listed apart in the source

With `CN(C)c1nc(N)c(C(=O)NC(=N)N)nc1Cl` [DMA, 5-(N,N-dimethyl)amiloride] the “effect on PepT1-mediated jejunal permeability/uptake of cefadroxil” value [1] was “inhibited” and the “reduction of cefadroxil permeability” value [1] was “about 60%”.
For `NCC(=O)O` [Gly, glycine], the “effect on jejunal effective permeability of cefadroxil” value [2] was “no significant effect”.
With `NCC(=O)N1CCC[C@H]1C(=O)O` [GlyPro, glycylproline] (H-Gly-Pro-OH) the “effect on jejunal effective permeability of cefadroxil” value [2] was “significantly decreased”.
In the case of `CN(CC(=O)O)C(=O)CN` [GlySar, glycylsarcosine] (H-Gly-[Sar]-OH), the “effect on jejunal effective permeability of cefadroxil” value [2] is given as “significantly decreased”, the increase of permeability ([3]; pH 5.5, in situ perfusion, mice) is given as 36% and the “reduction (systemic exposure) in PepT1 knockout vs. wild-type mice” value [4] is given as about 2 fold.
With `N[C@@H](Cc1c[nH]cn1)C(=O)O` [L-His, L-histidine] the “effect on jejunal effective permeability of cefadroxil” value [2] was “no significant effect”.
With `CNC(=O)c1cccnc1` [NMN, N-methylnicotinamide] the “effect on jejunal effective permeability of cefadroxil” value [2] was “no significant effect”.
For `CC[N+](CC)(CC)CC` [TEA], the “effect on jejunal effective permeability of cefadroxil” value [2] was “lack of effect”.
For `CC1=C(C(=O)O)N2C(=O)[C@@H](NC(=O)[C@H](N)c3ccc(O)cc3)[C@H]2SC1` [cefadroxil], the “K′m (apparent)” value ([5]; based on bulk fluid (inlet) concentrations) was 3.8 ± 1.2 mM, the “Vmax (intrinsic)” value ([5]; referenced to membrane surface concentration Cw) was 4.5 ± 0.3 nmol/cm^2/sec and the Peff ([6]; PepT1 knockout mice, colon) was 3.2 ×10⁻⁶ cm/s. The Peff ([6]; PepT1 knockout mice, ileum) was 4.2 ×10⁻⁶ cm/s, the Peff ([6]; PepT1 knockout mice, jejunum) was 9 ×10⁻⁶ cm/s and the “difference between genotypes in the permeability in colon” value ([6]; colon, wild-type vs PepT1 knockout) was “no significant difference”. The “permeability in PepT1 knockout mice as compared to wild-type mice” value (“permeability … compared to wild-type mice” for short) ([6]; duodenum) was 4%, the “permeability … compared to wild-type mice” value ([6]; ileum) was 5% and the “permeability … compared to wild-type mice” value ([6]; jejunum) was 12%. It also gave a Peff ([6]; wild-type mice, colon) of 6.4 ×10⁻⁶ cm/s, a Peff ([7]; duodenum) of 49 ×10⁻⁶ cm/s and a Peff ([7]; ileum) of 88 ×10⁻⁶ cm/s. The Peff ([7]; jejunum) was 80 ×10⁻⁶ cm/s, the “Tmax increase, PepT1 knockout vs wild-type” value [8] was about 4 fold and the Michaelis constant ([9]; ref 12) was 5.9 mM. For the same compound, the Michaelis constant ([9]; ref 13) was 6.6 mM, the Michaelis constant [10] was 1.1 mM and the “effect of perfusate pH on effective permeability” value [11] was “no significant differences; also recorded: not significantly affected”. For the same compound, the decrease of uptake ([12]; further reducing the pH to 5.5) was 50%, the “increase of drug uptake” value ([12]; shifting the pH from 7.4 to 6.0) was “about 4 fold” and the half-life [13] was ~ 95 min. The “effect on jejunal permeability of GlySar” value ([3]; co-perfusion of cefadroxil at saturating concentrations, wild-type mice) was “significantly reduced” and the “binding to plasma proteins” value [14] was “about 20%”.
For `CC(=O)OCC1=C(C(=O)O)N2C(=O)[C@@H](NC(=O)Cc3cccs3)[C@H]2SC1` [cephalothin], the “effect on jejunal effective permeability of cefadroxil” value [2] was “not affected; also recorded: no significant effect; also recorded: lack of effect”.

Source: publication PMC3596500 (Pharmaceutical research, 2012)
